We go through 13 compounds from PMC12290687, “Phenotypic Screening of the MMV Global Health Priority Box Identifies Selective Compounds with Anti-Toxoplasma gondii Activity” (ACS Omega, 2025).

Data set [1] concerns P. falciparum ring stages. The settings on record: literature report, reference mark not given; cited from earlier work.
Data set [2] has as its system T. gondii intracellular tachyzoites. Nature of the data set: microbe, parasite or virus in culture. It counts as cell-based, Toxoplasma gondii RH-2F1. The settings on record: half effective concentration against T. gondii intracellular tachyzoites in HFF, MOI 1:1, 72 h, duplicates in three independent experiments. As to the method: (§1) Toxoplasma gondii RH-2F1 tachyzoites, which express β-galactosidase, were maintained in human foreskin fibroblasts (HFFs). HFFs were cultured in Dulbecco’s Modified Eagle Medium (DMEM) supplemented with 10% fetal bovine serum (FBS), 2 mM L-glutamine, and 40 μg/mL gentamicin (referred to as D10) and incubated at 37 °C in a 5% CO2 humidified atmosphere. For infection assays, confluent monolayers were maintained in DMEM with 2% FBS (D2) prior to parasite inoculation.
(§2) For in vitro assays in 96-well plates, HFFs were seeded at 5 × 10^3 cells/well in the D10 medium and incubated for 12–16 h to allow adherence. […] For antiparasitic assays, HFFs were infected with RH-2F1 tachyzoites at a multiplicity of infection (MOI) of 1:1 for 3 h.
Parasite proliferation was assessed by quantifying β-galactosidase activity, as previously described. Briefly, after the 72 h incubation, cells were lysed in 100 μL of lysis buffer (100 mM HEPES pH 7.5, 1 mM MgSO4, 0.1% Triton X-100, 5 mM DTT) for 15 min at room temperature. […] Following a 30 min incubation at 37 °C, absorbance was measured at 570 nm using a Varioskan LUX microplate reader (Thermo Scientific). Each assay included viability controls (untreated infected cells), solvent controls (1% DMSO), a positive control (1 μM pyrimethamine), and experimental blanks (no cells). All conditions were tested in two biological replicates in three independent experiments.
Compounds from the GHPB library were screened at a final concentration of 1 μM in infected HFF monolayers, using the β-galactosidase assay as a readout for parasite viability after 72 h.

The nature of data set [3]: Cytotoxicity assay (resazurin reduction) in uninfected HFFs. It counts as cell-based, human. The following applies: human. As for the experimental part: as §1, §2
(§3) The resazurin assay was used to evaluate the compound cytotoxicity in uninfected HFFs. Following 72 h treatment, 100 μM resazurin was added to each well and incubated for 4 h at 37 °C. Fluorescence was measured using excitation/emission wavelengths of 565/590 nm. Controls included untreated cells (viability control), 1% DMSO (solvent control), 50 μM pyrimethamine (reference drug), and blank wells (no cells). Each condition was tested in duplicate in three independent experiments.

Data set [4] relates to human foreskin fibroblasts (HFF). The description is as above. It counts as cell-based. The settings on record: half cytotoxic concentration against HFF, 72 h, highest concentration tested 50 μM. As to the method:
as §1, §2, §3

The test system of the next data set is Plasmodium liver stages. The settings on record: literature report, reference mark not given; cited from earlier work.
A further data set concerns HEK293 cell line. Details: method as in Timoumi et al. The following applies: ref Timoumi et al.; cited from earlier work.
Details of data set [5]: method as in Timoumi et al. The settings on record: doses of 350–500 mg/kg; ref Timoumi et al.; cited from earlier work.
The test system of a further data set is HepG2 cell line. On the set-up: method as in Timoumi et al. The following applies: ref Timoumi et al.; cited from earlier work.
The next data set deals with VERO/RAW cells. On the set-up: method as in Tali et al. The settings on record: ref Tali et al.; cited from earlier work.
Another data set relates to H. contortus. Details: method as in Shanley et al. (2024). The following applies: ref Shanley et al. (2024); cited from earlier work.
[6] abbreviates: uninfected human foreskin fibroblasts (HFF), half cytotoxic concentration against HFF, 72 h, highest concentration tested 50 μM, read-out: CC50 (μM) ± SD.

The structures appear in SMILES notation. Like-named read-outs stand apart in the source and are kept apart here.

Consider `CCOc1ccccc1NC(=O)Cn1c(=O)n(Cc2ccccc2)c(=O)c2c(C)c(C(=O)N(C)C)sc21` [MMV006430], for which the “time to activity against P. falciparum ring stages (fast-acting)” value in data set [1] is “under 65 h”. In [2] (Toxoplasma gondii), this compound had an EC50 of 0.3 ± 0.03 µM. Further, the CC50 at 72 h in data set [3] (setting [6]) was greater than 50 µM.

On to `O=C(Nc1ccc(Cl)c(C(F)(F)F)c1)Nc1ccc(Cl)c(C(F)(F)F)c1` [MMV027339], for which the EC50 in data set [2] turned out to be 0.5 ± 0.02 µM. Also, in data set [4], half-maximal cytotoxicity (CC50) was put at 5.51 ± 0.86 µM.

In the case of `CS(=O)(=O)c1ccc(-c2cnn3c2NC(c2cccc(S(=O)(=O)C4CC4)c2)CC3)cc1` (stereo not shown) [MMV674132], the “activity against Plasmodium liver stages” value in the data set with Plasmodium liver stages is recorded as “activity”. Further, the “time to activity against P. falciparum ring stages (fast-acting)” value in [1] is listed as “under 65 h”. In data set [2] (Toxoplasma gondii), this compound returned an EC50 of 0.19 ± 0.04 µM. Also, the CC50 at 72 h in data set [3] (setting [6]) is greater than 50 µM.

Take `O=C(NC(=O)c1ccccc1Cl)Nc1ccc(OC(F)(F)F)cc1` [MMV689404, Triflumuron]: the CC50 with HEK293 cell line is 200000 nM; in the data set with HepG2 cell line, 120000 nM. Moreover, the “in vivo toxicity finding” value in data set [5] was “hepatotoxicity and oxidative stress”. Moreover, a half-maximal response in [2] (Toxoplasma gondii) (EC50) required 0.49 ± 0.03 µM. Moreover, the CC50 at 72 h in [3] (half cytotoxic concentration against HFF, 72 h, highest concentration tested 50 μM, read-out: CC50 (μM) ± SD) was greater than 50 µM.

On to `CN(C)C1CC(NC(=O)c2ccc(Nc3nccc(-c4ccc(Cl)c(C(F)(F)F)c4)n3)cc2)C1` (stereo not shown) [MMV884814], for which it took 0.76 ± 0.06 µM to reach a half-maximal effect in data set [2] (EC50). The compound also registered a CC50 in data set [4] of 4.1 ± 1.18 µM.

`O=C(Nc1ncccc1O)c1ccc(N2CCOCC2)nc1` [MMV1103183] had an EC50 in data set [2] of 0.72 ± 0.39 µM. This compound also yielded a CC50 in [4] greater than 50 µM.

Compound `O=C(Nc1ncccc1O)c1ccc(Cn2cccn2)cc1` [MMV1266067] displayed an EC50 in data set [2] of 0.73 ± 0.13 µM. The compound also had a CC50 in [4] greater than 50 µM.

On to `Cn1ccnc1SCC(=O)Nc1ccc(C(=O)Nc2ncccc2O)cc1` [MMV1267536], for which the “activity against Plasmodium liver stages” value in the data set on Plasmodium liver stages is “activity”. This compound returned an EC50 in [2] (Toxoplasma gondii) of 0.19 ± 0.03 µM. For the same compound, the CC50 at 72 h in data set [3] (setting [6]) amounted to 29.2 ± 2.79 µM.

For the compound `O=C(Nc1ncccc1O)c1ccc(S(=O)(=O)NCCc2cccs2)cc1` [MMV1435700], the midpoint of the response in data set [2], the EC50, lay at 0.34 ± 0.08 µM. This compound returned a CC50 in data set [4] of 20 ± 3.8 µM.

`Cn1c(O)c(C(=O)Nc2ccc(Cl)c(Cl)c2)c(=O)n(C)c1=O` [MMV1634081] showed an EC50 in data set [2] of 0.52 ± 0.01 µM. This compound also yielded a CC50 in data set [4] of 30.8 ± 4.55 µM.

For `CO/C=C(/C(=O)OC)c1ccccc1COc1c(C)c(-c2ccc(C)cc2C)nn1C` [MMV1794211], the CC50 in the data set with VERO/RAW cells was greater than 10000 nM. In addition, in [2] (Toxoplasma gondii), the EC50 was found to be 0.01 ± 0.01 µM.

In the case of `COc1cc(/C=N/c2c(SC(F)(F)F)c(C#N)nn2-c2c(Cl)cc(C(F)(F)F)cc2Cl)ccc1O` [MMV1794214, Vaniliprole], in the data set on H. contortus, the “effect on H. contortus” value was “impairs motility and larval development”. The EC50 in [2] (Toxoplasma gondii) turned out to be 0.07 ± 0.04 µM. Further, in data set [3], the CC50 at 72 h was greater than 50 µM.

For the compound `CCc1nc(N)nc(N)c1-c1ccc(Cl)cc1` [Pyrimethamine, reference compound], the EC50 in data set [2] (Toxoplasma gondii) came out at 0.38 ± 0.03 µM. Also, the CC50 at 72 h in data set [3] (setting [6]) was greater than 50 µM.

By EC50 is commonly meant the concentration that produces a half-maximal response. In general, CC50 refers to the concentration at which the toxic effect on the cells reaches its halfway point.
